In patent US10196357B2, “Biaryl compositions and methods for modulating a kinase cascade” (Athenex, Inc., priority 2007, dated 2019):

Columns and labels:
[1] = plasma exposure after oral administration; assay type: in vivo, male CD-1 mice; conditions: Male CD-1 mice
Method: (§1) Plasma concentrations were measured in mice after oral administration. All doses were formulated in purified water. Four groups of male CD-1 mice were dosed after an overnight fast and fed 4 hours post-dose. Dosing was as follows:
(§2) Protein was precipitated with 0.25 mL acetonitrile for plasma, 0.25 mL for brain. After centrifugation, supernatant was directly injected into an LC/MS system. The limit of quantitation was 1 ng/mL using a 50 μL aliquot for plasma and a 50 μL, aliquot for brain. The standard curve was 1 to 1,000 ng/mL for both plasma and brain. HPLC conditions were as follows:
(§3) HPLC System: Shimadzu SCL-10 System
(§4) • Analytical Column: Aquasil C18 5 μm 100×2 mm column. • Column Temperature: Ambient temperature • Autosampler Temperature: Ambient temperature • Mobile Phase A) 10 mM Ammonium formate in water (pH 4). • B) Acetonitrile. • Flow Rate: 0.6 mL/min • Injection Volume: 2 μL • Gradient:
(§5) • Mass Spectrometry Conditions were as follows: • Instrument: ABI Sciex API 4000 • Mode: ESI+ • Experiment: MRM (multiple reaction monitoring) • Transitions: KX2-391: m/z 432.4→114.2 (Rt=3.11 minute) • KX2-361: m/z 406.1→253.2 (Rt=3.33 minute)

[2] = brain exposure after oral administration; assay type: in vivo, male CD-1 mice; conditions: for AUClast: Brain; for KX2-361 Brain Concentrations, Group A / KX2-361 Brain Concentrations, Group B / KX2-361 Brain Concentrations, Group C: Male CD-1 mice, single PO dose 10 mg/kg (Group 3)
Method: as §1, §2, §3, §4, §5

[3] = single PO dose 10 mg/kg (Group 3), 0 hr
[4] = single PO dose 10 mg/kg (Group 3), 0.5 hr
[5] = single PO dose 10 mg/kg (Group 3), 1 hr
[6] = single PO dose 10 mg/kg (Group 3), 2 hr
[7] = single PO dose 10 mg/kg (Group 3), 5 hr
[8] = single PO dose 50 mg/kg (Group 4), 0 hr
[9] = single PO dose 50 mg/kg (Group 4), 0.5 hr
[10] = single PO dose 50 mg/kg (Group 4), 1 hr
[11] = single PO dose 50 mg/kg (Group 4), 2 hr
[12] = single PO dose 50 mg/kg (Group 4), 5 hr

O=C(Cc1ccc(-c2ccc(N3CCOCC3)cc2)cn1)NCc1cccc(F)c1 [KX2-361]
KX2-361 Plasma Concentrations, Group A [1, 3]: BLQ (BLQ: Below Limit of Quantitation (1 ng/mL))
KX2-361 Plasma Concentrations, Group B [1, 3]: BLQ (BLQ: Below Limit of Quantitation (1 ng/mL))
KX2-361 Plasma Concentrations, Group C [1, 3]: BLQ (BLQ: Below Limit of Quantitation (1 ng/mL))
KX2-361 Plasma Concentrations, Group A [1, 4]: 65.93 ng/mL
KX2-361 Plasma Concentrations, Group B [1, 4]: 217.56 ng/mL
KX2-361 Plasma Concentrations, Group C [1, 4]: 159.53 ng/mL
KX2-361 Plasma Concentrations, Group A [1, 5]: 284.09 ng/mL
KX2-361 Plasma Concentrations, Group B [1, 5]: 596.31 ng/mL
KX2-361 Plasma Concentrations, Group C [1, 5]: 398.35 ng/mL
KX2-361 Plasma Concentrations, Group A [1, 6]: 153.07 ng/mL
KX2-361 Plasma Concentrations, Group B [1, 6]: 118.96 ng/mL
KX2-361 Plasma Concentrations, Group C [1, 6]: 342.45 ng/mL
KX2-361 Plasma Concentrations, Group A [1, 7]: 2.63 ng/mL
KX2-361 Plasma Concentrations, Group B [1, 7]: 64.15 ng/mL
KX2-361 Plasma Concentrations, Group C [1, 7]: 53.18 ng/mL
KX2-361 Plasma Concentrations, Group A [1, 8]: BLQ (BLQ: Below Limit of Quantitation (1 ng/mL))
KX2-361 Plasma Concentrations, Group B [1, 8]: BLQ (BLQ: Below Limit of Quantitation (1 ng/mL))
KX2-361 Plasma Concentrations, Group C [1, 8]: BLQ (BLQ: Below Limit of Quantitation (1 ng/mL))
KX2-361 Plasma Concentrations, Group B [1, 9]: 2316.91 ng/mL
KX2-361 Plasma Concentrations, Group C [1, 9]: 1587.18 ng/mL
KX2-361 Plasma Concentrations, Group A [1, 10]: 1805.19 ng/mL
KX2-361 Plasma Concentrations, Group B [1, 10]: 969.48 ng/mL
KX2-361 Plasma Concentrations, Group C [1, 10]: 3635.91 ng/mL
KX2-361 Plasma Concentrations, Group A [1, 11]: 475.13 ng/mL
KX2-361 Plasma Concentrations, Group B [1, 11]: 1710.13 ng/mL
KX2-361 Plasma Concentrations, Group C [1, 11]: 1709.02 ng/mL
KX2-361 Plasma Concentrations, Group A [1, 12]: 138.53 ng/mL
KX2-361 Plasma Concentrations, Group B [1, 12]: 252.81 ng/mL
KX2-361 Plasma Concentrations, Group C [1, 12]: 298.99 ng/mL
AUClast ([2]; single oral dose 10 mg/kg): 656 ng·h/g
AUClast ([2]; single oral dose 50 mg/kg): 3338 ng·h/g
KX2-361 Brain Concentrations, Group A ([2]; 0 hr): BLQ (BLQ: Below Limit of Quantitation (1 ng/mL))
KX2-361 Brain Concentrations, Group B ([2]; 0 hr): BLQ (BLQ: Below Limit of Quantitation (1 ng/mL))
KX2-361 Brain Concentrations, Group C ([2]; 0 hr): BLQ (BLQ: Below Limit of Quantitation (1 ng/mL))
KX2-361 Brain Concentrations, Group A ([2]; 0.5 hr): 43.98 ng/g
KX2-361 Brain Concentrations, Group B ([2]; 0.5 hr): 138.55 ng/g
KX2-361 Brain Concentrations, Group C ([2]; 0.5 hr): 116.84 ng/g
KX2-361 Brain Concentrations, Group B ([2]; 1 hr): 334.71 ng/g
KX2-361 Brain Concentrations, Group C ([2]; 1 hr): 273.32 ng/g
KX2-361 Brain Concentrations, Group A ([2]; 2 hr): 109.78 ng/g
KX2-361 Brain Concentrations, Group B ([2]; 2 hr): 78.76 ng/g
KX2-361 Brain Concentrations, Group C ([2]; 2 hr): 336.07 ng/g
KX2-361 Brain Concentrations, Group A ([2]; 5 hr): BLQ (BLQ: Below Limit of Quantitation (1 ng/mL))
KX2-361 Brain Concentrations, Group C ([2]; 5 hr): 47.85 ng/g
AUClast Brain/AUClast Plasma Ratio ([2]; single oral dose 10 mg/kg): 0.76
